Test results from patent EP4516289A1, “ANTIVIRAL NASAL SPRAY COMPRISING FAVIPIRAVIR” (SPH Sine Pharmaceutical Laboratories Co., Ltd, priority 2023, dated 2025).
Converted amounts (≈) assume the structure as drawn.

Tests used:
[1] = Solubility of micronized FPV in different organic solvents (visual inspection); type: physicochemical; settings: thermodynamic from solid
From the text: In order to check for a possible improvement of FPV solubility in an aqueous solvent, it was decided to follow the protocol of WO2017009480. As a first task it was necessary to find a suitable organic solvent for pre-dissolution of FPV prior to adding the pre-dissolved FPV to the buffered aqueous solvent. The results are depicted in Table 1 Table 1: Solubility of micronized FPV in different organic solvents

[2] = Solubility and storage stability of aqueous FPV formulations (RP-HPLC on day 0 and day 7); type: physicochemical; settings: for solubility: thermodynamic from solid; for highest starting concentration of dissolved FPV: HPLC day 0, calculated approx. 17 mg/ml
Description: In order to determine the maximum solubility of FPV in water various samples of either raw or micronized FPV powder have been prepared. […] In this experimental set-up, the FPV starting concentration was adjusted to a calculated value of 5 mg/ml. After admixture of all ingredients the experimental samples contained 10 %v/v PEG 400, 2 %wt dexpanthenol, and either a citrate or a phosphate buffer, or a combination of both, adjusted to pH 5.5. The selected saponins were tested each in three concentrations, i.e. escin: 0.10, 0.25 and 0.50% w/v, and glycyrrhizin: 1.0, 2.5 and 5.0% w/v. Glycyrrhizin was applied in the form of dipotassium glycyrrhizinate in this and all other examples. For the quantification of FPV contents in the experimental sample formulations, an RP-HPLC method using a Zorbax Eclipse Plus C18 column from Agilent Technologies was applied and adapted for the present purpose. The results of the storage stability test of the various FPV containing samples are depicted in Table 2. Table 2: Storage stability of different aqueous formulations of 5 mg/ml FPV In an attempt to raise the starting concentration of FPV in a pharmaceutically acceptable aqueous solvent the PEG 400 / FPV stock solution was applied in an amount such as to increase the theoretical / calculated FPV concentration from 5 to about 10mg/ml, more precisely to 9.5mg/ml. After admixture of the predetermined portion of PEG 400 solvent comprising FPV to the aqueous buffer solution the resulting samples contained 10.5 %v/v PEG 400, and 2% dexpanthenol in phosphate buffer pH 5.5. The selected saponins were applied in the following concentrations: escin: 0.01 and 0.05 %w/v; glycyrrhizin: 1.0, 2.5 and 5.0 %w/v. The sample formulations were analyzed by HPLC on day 0 and day 7, the results being depicted in Table 3. Table 3: Storage stability of different aqueous formulations of 9.5 mg/ml FPV In a next step it was tried to even further increase the FPV concentration in the aqueous solvent system. The theoretical FPV starting concentration was adjusted to approximately 17 mg/ml, more precisely to 17.2 mg/ml (raw FPV) and 17.1 mg/ml (micronized FPV), using stock solutions comprising 85.45 mg/ml (raw) and 86.07 mg/ml (micronized) FPV in PEG 400. The final experimental samples contained […] and 2% dexpanthenol in phosphate buffer, pH 5.5, along with varying saponin concentrations: escin 0.10, 0.25 and 0.50 %w/v; glycyrrhizin: 1.0, 2.5 and 5.0 %w/v. The factual - as opposed to the calculated, theoretical - FPV concentrations were determined from the sample preparations by HPLC on day 0 and day 7. Table 4: Storage stability of different aqueous formulations of 17 mg/ml FPV In yet another experimental set-up a possible influence of the organic solvent PEG 400 on the solubility and stability of buffered aqueous sample preparations containing approximately 10 mg/ml FPV was investigated. PEG 400 was used at concentrations of 0, 2.5, 5.0, 7.5 and 10.0 %v/v. The samples were prepared in phosphate buffer, pH 5.5 with 2% dexpanthenol and including at least one of the saponins in the following concentrations: escin 0.01 and 0.05 %w/v; glycyrrhizin 1.0, 2.5 and 5.0 %w/v. […] The FPV contents in the sample preparations were analyzed by HPLC on day 0 and day 7, and the results are depicted in Table 5. In this experiment, only micronized FPV powder was used and was directly added to the aqueous formulations in an amount such as to yield a calculated (theoretical) concentration of 10 mg/ml. […]

[3] = cited from earlier work

For NC(=O)c1nc(F)cnc1O [FPV, 6-fluoro-3-hydroxypyrazine-2-carboxamide], the solubility ([1]; organic solvent or mixture, solvent Glycerol, read-out: Solubility, Visual Inspection Conc.) was < 33000 µg/mL, the solubility ([1]; organic solvent or mixture, solvent PEG 400, read-out: Solubility, Visual Inspection Conc.) was 90000 µg/mL (≈ 573 mM) and the solubility ([1]; organic solvent or mixture, solvent PG, read-out: Solubility, Visual Inspection Conc.) was < 10000 µg/mL. It also gave a solubility ([1]; organic solvent or mixture, solvent PPG 400, read-out: Solubility, Visual Inspection Conc.) of 25000 µg/mL (≈ 159 mM), a solubility ([1]; solvent AD (distilled water), read-out: Solubility, Visual Inspection Conc.) of 5000 µg/mL (≈ 31.8 mM) and a solubility ([2]; 25 °C, pure water, read-out: solubility in an aqueous solution) of ~4500 µg/mL. The solubility ([2]; aqueous buffer, stable pH 4 to 6, phosphate or citrate buffer system, read-out: solubility in an aqueous solution) was > 10000 µg/mL, the solubility ([2]; aqueous solution without buffer, 25 °C, water, without buffer, regardless of the amount of FPV added, read-out: maximum solubility of FPV in an aqueous solution) was < 5000 µg/mL and the “highest starting concentration of dissolved FPV” value ([2]; micronized FPV in phosphate buffer without saponins and without dexpanthenol) was 11.7 mg/mL. For the same compound, the “highest starting concentration of dissolved FPV” value ([2]; raw FPV in phosphate buffer pH 5.5 including 5 %w/v glycyrrhizin) was 11.5 mg/mL and the “solubility in water” value [3] was “slightly soluble”.
